Experimental data: patent publication US20130184222A1, “[…] ACTIVE COMPOSITIONS AND THEIR METHODS OF USE” (AGIOS PHARMACEUTICALS, INC, priority 2010, published 2013)

What was measured:
HT1080 cells = assay: Cellular assay: inhibition of 2-HG production in HT1080 cells (LC-MS, 48 hours); type: cell-based; conditions: Homo sapiens, HT-1080, 2-HG in media by LC-MS
Summary of the method: (§1)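 HT1080 or U87MG cells (5000/well, DMEM + 10% FBS) seeded overnight, then exposed to compound (0.2% DMSO final) for 48 h; medium 2-HG measured by LC-MS. Viability read by CellTiter-Glo luminescence at 72 h.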

U87MG cells = assay: Cellular assay: inhibition of 2-HG production in U87MG cells (LC-MS, 48 hours); type: cell-based; conditions: Homo sapiens, U-87 MG, 2-HG in media by LC-MS
Summary of the method: as §1

IDH1 R132H = IDH1 R132H (Homo sapiens, UniProt O75874, R132H); assay: In vitro assay for IDH1 R132H inhibitors (NADPH/aKG, resazurin detection); type: biochemical; conditions: Table 4B; 0.2 μg/ml IDH1 R132H, 50 minutes at room temperature; read-out: IC50, IDH1 R132H Inhibition
Summary of the method: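 Buffer: 150 mM NaCl, 10 mM MgCl2, 20 mM Tris pH 7.5, 0.03% BSA. Compound was added to substrate mix (8 uM NADPH, 2 mM aKG), then enzyme mix (0.2 μg/ml IDH1 R132H), and incubated 50 min at room temperature. Remaining NADPH was read by resazurin (30 μM in detection mix) to resorufin fluorescence after 5 min, Ex544/Em590.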

Chain of IDH1 R132H (O75874 whole entry R132H): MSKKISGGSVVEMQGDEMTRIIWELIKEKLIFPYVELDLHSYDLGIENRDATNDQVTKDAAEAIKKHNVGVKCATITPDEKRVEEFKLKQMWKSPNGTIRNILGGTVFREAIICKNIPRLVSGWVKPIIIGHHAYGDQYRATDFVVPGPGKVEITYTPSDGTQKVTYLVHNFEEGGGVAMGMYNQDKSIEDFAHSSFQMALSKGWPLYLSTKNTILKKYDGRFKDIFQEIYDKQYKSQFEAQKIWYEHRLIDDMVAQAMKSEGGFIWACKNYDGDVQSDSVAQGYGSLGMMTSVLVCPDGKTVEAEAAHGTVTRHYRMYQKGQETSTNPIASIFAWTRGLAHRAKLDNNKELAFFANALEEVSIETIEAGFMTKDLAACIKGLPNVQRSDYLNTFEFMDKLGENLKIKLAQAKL

Structure (SMILES) | IC50 (HT1080 cells) | IC50 (U87MG cells) | IC50 (IDH1 R132H)
Cc1ccccc1C(C(=O)NC1CCCCC1)N(C(=O)CNc1ncc[nH]1)c1cccc(F)c1 (stereo not drawn) [Compound 308] | 1000 to 5000 nM | ≤ 250 nM | 100 to 1000 nM
CN(C)C(=O)Oc1ccc(CC(=O)N(c2cccc(F)c2)C(C(=O)NC2CCCCC2)c2ccccc2F)cc1 (stereo not drawn) [Compound 313] | ≤ 250 nM | ≤ 250 nM | ≤ 100 nM
Cc1nccn1CC(=O)N(c1cccc(F)c1)C(C(=O)NC1CCCCC1)c1ccccc1Cl (stereo not drawn) [Compound 314] | ≤ 250 nM | ≤ 250 nM | ≤ 100 nM
Cc1ccccc1C(C(=O)NC1CCCCC1)N(C(=O)CNc1ccccn1)c1cccc(F)c1 (stereo not drawn) [Compound 316] | ≤ 250 nM | 250 to 1000 nM | ≤ 100 nM
Cc1ccccc1C(C(=O)NC1CCCCC1)N(C(=O)CNC1Cc2cccnc2C1)c1cccc(F)c1 (stereo not drawn) [Compound 318] | 250 to 1000 nM | 250 to 1000 nM | 100 to 1000 nM
O=C(NC1CCCCC1)C(c1ccccc1F)N(C(=O)Cc1cscn1)c1cccc(F)c1 (stereo not drawn) [Compound 320] | 250 to 1000 nM | 250 to 1000 nM | ≤ 100 nM
O=C(NC1CCCCC1)C(c1ccccc1F)N(C(=O)Cn1cnc2ccccc21)c1cccc(F)c1 (stereo not drawn) [Compound 321] | ≤ 250 nM | ≤ 250 nM | ≤ 100 nM
N#Cc1ccc(NCC(=O)N(c2cccc(F)c2)C(C(=O)NC2CCCCC2)c2ccccc2Cl)cc1 (stereo not drawn) [Compound 322] | ≤ 250 nM | ≤ 250 nM | ≤ 100 nM
Cc1ccccc1C(C(=O)NC1CCCCC1)N(C(=O)Cn1ccnc1N)c1cccc(F)c1 (stereo not drawn) [Compound 326] | 250 to 1000 nM | ≤ 250 nM | 100 to 1000 nM
Cc1ccccc1C(C(=O)NC1CC2CC2C1)N(C(=O)Cn1ccnc1C)c1cccc(F)c1 (stereo not drawn) [Compound 327] | 1000 to 5000 nM | ≤ 250 nM | 100 to 1000 nM
COC(=O)N1CCCC[C@@H]1C(=O)N(c1cccc(F)c1)[C@H](C(=O)NC1CCCCC1)c1ccccc1C [Compound 335] | 250 to 1000 nM | 1000 to 5000 nM | 100 to 1000 nM
Cc1ccccc1[C@@H](C(=O)NC1CCCCC1)N(C(=O)[C@@H]1CCCCN1C(=O)OC(C)C)c1cccc(F)c1 [Compound 339] | 1000 to 5000 nM | 1000 to 5000 nM | 100 to 1000 nM
Cc1ccccc1C(C(=O)NC1CCC(F)(F)CC1)N(C(=O)CNc1ncccc1F)c1cccc(F)c1 (stereo not drawn) [Compound 342] | 250 to 1000 nM | 250 to 1000 nM | 100 to 1000 nM
Cc1ccccc1C(C(=O)NC1CCCCC1)N(C(=O)Cn1ccnc1C(F)(F)F)c1cccc(F)c1 (stereo not drawn) [Compound 344] | 250 to 1000 nM | ≤ 250 nM | 100 to 1000 nM
[2H]C1([2H])C([2H])([2H])C([2H])([2H])C([2H])(NC(=O)C(c2ccccc2C)N(C(=O)COc2ccccn2)c2cccc(F)c2)C([2H])([2H])C1([2H])[2H] (stereo not drawn) [Compound 351] | ≤ 250 nM | ≤ 250 nM | ≤ 100 nM
Cc1ccccc1C(C(=O)NC1CC2CC2C1)N(C(=O)COc1ccccn1)c1cccc(F)c1 (stereo not drawn) [Compound 354] | 250 to 1000 nM | 250 to 1000 nM | 100 to 1000 nM

The next lines start with the values.

IC50 (HT1080 cells) | IC50 (U87MG cells) | IC50 (IDH1 R132H) | Structure (SMILES)
250 to 1000 nM | 1000 to 5000 nM | 100 to 1000 nM | Cc1cnn(CC(=O)N(c2cccc(F)c2)C(C(=O)NC2CCCCC2)c2ccccc2C)c1 (stereo not drawn) [Compound 309]
250 to 1000 nM | 1000 to 5000 nM | 100 to 1000 nM | Cc1ccccc1C(C(=O)NC1CCCCC1)N(C(=O)CNc1cncc(F)c1)c1cccc(F)c1 (stereo not drawn) [Compound 310]
≤ 250 nM | ≤ 250 nM | ≤ 100 nM | Cc1ccccc1C(C(=O)NC1CCCCC1)N(C(=O)Cc1ccncc1)c1cccc(F)c1 (stereo not drawn) [Compound 311]
1000 to 5000 nM | ≤ 250 nM | 100 to 1000 nM | Cc1nccn1CC(=O)N(c1cccc(F)c1)C(C(=O)NC1CCCCC1)c1ccccc1F (stereo not drawn) [Compound 312]
1000 to 5000 nM | ≤ 250 nM | 100 to 1000 nM | Cc1ccccc1C(C(=O)NC1CCCCC1)N(C(=O)Cn1ccnc1C)c1cccc(-c2ccnn2C)c1 (stereo not drawn) [Compound 315]
250 to 1000 nM | 1000 to 5000 nM | 100 to 1000 nM | Cc1ccccc1C(C(=O)NC1CCCCC1)N(C(=O)Cn1cccn1)c1cccc(F)c1 (stereo not drawn) [Compound 317]
1000 to 5000 nM | 1000 to 5000 nM | 100 to 1000 nM | Cc1ccccc1C(C(=O)NC1CCCCC1)N(C(=O)Cn1cc[nH]c1=O)c1cccc(F)c1 (stereo not drawn) [Compound 319]
1000 to 5000 nM | 250 to 1000 nM | 100 to 1000 nM | O=C(NC1CCCCC1)C(c1ccccc1F)N(C(=O)Cn1ccc2ncccc21)c1cccc(F)c1 (stereo not drawn) [Compound 324]
1000 to 5000 nM | 1000 to 5000 nM | 100 to 1000 nM | Cc1ccccc1C(C(=O)NC1CC2CC2C1)N(C(=O)Cn1ccc2ncccc21)c1cccc(F)c1 (stereo not drawn) [Compound 325]
1000 to 5000 nM | 1000 to 5000 nM | 100 to 1000 nM | CCC(=O)N1CCCCC1C(=O)N(c1cccc(F)c1)C(C(=O)NC1CCCCC1)c1ccccc1C (stereo not drawn) [Compound 328]
250 to 1000 nM | ≤ 250 nM | 100 to 1000 nM | Cc1ccccc1C(C(=O)NC1CCC(F)(F)CC1)N(C(=O)Cn1ccnc1C)c1cccc(F)c1 (stereo not drawn) [Compound 330]
≤ 250 nM | ≤ 250 nM | ≤ 100 nM | Cc1ccccc1C(C(=O)NC1CCC(F)(F)CC1)N(C(=O)COc1ccccn1)c1cccc(F)c1 (stereo not drawn) [Compound 331]
250 to 1000 nM | 1000 to 5000 nM | 100 to 1000 nM | Cc1ccccc1[C@@H](C(=O)NC1CCCCC1)N(C(=O)[C@H]1CCCCN1C(=O)OC(C)(C)C)c1cccc(F)c1 [Compound 332]
≤ 250 nM | 1000 to 5000 nM | 100 to 1000 nM | Cc1ccccc1C(C(=O)NC1CC2CC2C1)N(C(=O)CNc1ncccc1F)c1cccc(F)c1 (stereo not drawn) [Compound 333]
≤ 250 nM | ≤ 250 nM | ≤ 100 nM | COC(=O)NCC(=O)N(c1cccc(F)c1)C(C(=O)NC1CCCCC1)c1ccccc1C (stereo not drawn) [Compound 334]
250 to 1000 nM | 250 to 1000 nM | 100 to 1000 nM | COC(=O)N1CCCC[C@H]1C(=O)N(c1cccc(F)c1)[C@H](C(=O)NC1CCCCC1)c1ccccc1C [Compound 336]
250 to 1000 nM | 1000 to 5000 nM | 100 to 1000 nM | Cc1ccccc1[C@@H](C(=O)NC1CCCCC1)N(C(=O)[C@H]1CCCCN1C(=O)OC(C)C)c1cccc(F)c1 [Compound 338]
1000 to 5000 nM | 250 to 1000 nM | 100 to 1000 nM | Cc1ccccc1[C@@H](C(=O)NC1CCCCC1)N(C(=O)[C@H]1CCCN1C(=O)OC(C)(C)C)c1cccc(F)c1 [Compound 340]
≤ 250 nM | ≤ 250 nM | ≤ 100 nM | COC(=O)N(C)CC(=O)N(c1cccc(F)c1)C(C(=O)NC1CCCCC1)c1ccccc1C (stereo not drawn) [Compound 341]
1000 to 5000 nM | 1000 to 5000 nM | 100 to 1000 nM | CCOC(=O)N1CCCC[C@@H]1C(=O)N(c1cccc(F)c1)[C@H](C(=O)NC1CCCCC1)c1ccccc1C [Compound 345]
250 to 1000 nM | 250 to 1000 nM | 100 to 1000 nM | Cc1ccccc1[C@@H](C(=O)NC1CCCCC1)N(C(=O)[C@H]1CCCCN1S(C)(=O)=O)c1cccc(F)c1 [Compound 346]
1000 to 5000 nM | 1000 to 5000 nM | 100 to 1000 nM | CCC(=O)N1CCCC[C@@H]1C(=O)N(c1cccc(F)c1)[C@H](C(=O)NC1CCCCC1)c1ccccc1C [Compound 347]
